Laboratory results reported in patent US20250154126A1, “CRYSTALLINE FORM OF SULFUR-CONTAINING ISOINDOLINE DERIVATIVE” (JIANGSU HENGRUI PHARMACEUTICALS CO., LTD., priority 2022, published 2025).
One block for each compound: values may come before it.

Tests used:
Type in all cases: physicochemical
[1] = Hygroscopicity study of crystal forms (dynamic vapour sorption, 25° C.); settings: for Crystal form after hygroscopicity test: two cycles
Text: According to the “9103 Guideline for Hygroscopicity for Pharmaceuticals” in Part IV of the 2015 edition of the Chinese Pharmacopoeia, descriptions of hygroscopic characteristics and definitions of hygroscopic weight gain are as follows; • Deliquescent: Absorbs sufficient moisture to form a liquid; • Extremely hygroscopic: Hygroscopic weight gain is no less than 15%; • Hygroscopic: Hygroscopic weight gain is less than 15% but no less than 2%; • Slightly hygroscopic: Hygroscopic weight gain is less than 2% but no less than 0.2%; • Non-hygroscopic or nearly non-hygroscopic: Hygroscopic weight gain is less than 0.2%.
Compound of Formula (I) (Oct. 15, 2021, Nanjing) 03881 Using the Surface Measurement Systems advantage 2, at a temperature of 25° C., and starting at a humidity of 50%, the humidity range was examined from […] to 95%, with increments of 10%. The criterion for evaluation was that the mass change dM/dT at each gradient was less than 0.002%, TMAX was 360 min, and the process was cycled twice.

[2] = Influencing factor stability of crystal forms (light, high temperature, high humidity, 30 days); settings: for change in purity under 60° C. and light: 60° C. and light (4500 Lux); for change in purity under 60° C. and light / physicochemical stability under high humidity: open; for physicochemical stability under high humidity: high humidity conditions of 75% and 92.5%; for crystal form after influencing factor experiments: light, high temperature, high humidity
Experimental: Each crystal form was spread out in an open exposure setup, and the stability of the samples under conditions of light (4500 Lux), high temperature (40° C., 60° C.), and high humidity (RH 75 RH 92.5%) was examined separately. The sampling inspection period was 30 days.

[3] = Long-term/accelerated stability of crystal forms (25° C. 60% RH and 40° C. 75% RH); settings: for physical and chemical stability, long-term accelerated conditions: 25° C. 60% RH and 40° C. 75% RH, six months
Experimental: The crystal forms D, E, Q, and U of the compound of formula (I) were respectively placed under conditions of 25° C. with 60% RH and 40° C. with 75% RH to evaluate their stability.

[4] = 92.5% RH, 9 days, open exposure
[5] = 92.5% RH, 15 days, open exposure
[6] = 92.5% RH, 30 days, open exposure
[7] = light 4500 Lux, 9 days, open exposure
[8] = light 4500 Lux, 15 days, open exposure
[9] = light 4500 Lux, 30 days, open exposure

Hygroscopic weight change 0.0% RH-95.0% RH [1]: 2.24%
Hygroscopic weight change 20% RH-80% RH [1]: 1.26%
Hygroscopicity class (20% RH-80% RH) [1]: (slightly hygroscopic)
Crystal form after hygroscopicity test [1]: Untransformed
Color and character ([2]; 40° C., 9 days, open exposure): White solid
Purity % ([2]; 40° C., 9 days, open exposure, listed as Free crystal form D): 97.3%
Color and character ([2]; 40° C., 15 days, open exposure): White solid
Purity % ([2]; 40° C., 15 days, open exposure, listed as Free crystal form D): 96.7%
Color and character ([2]; 40° C., 30 days, open exposure): White solid
Purity % ([2]; 40° C., 30 days, open exposure, listed as Free crystal form D): 95.8%
change in purity under 60° C. and light ([2]; 30 days): slight decrease in purity
Color and character ([2]; 60° C., 9 days, open exposure): White solid
Purity % ([2]; 60° C., 9 days, open exposure, listed as Free crystal form D): 96.6%
Color and character ([2]; 60° C., 15 days, open exposure): White solid
Purity % ([2]; 60° C., 15 days, open exposure, listed as Free crystal form D): 95.8%
Color and character ([2]; 60° C., 30 days, open exposure): White solid
Purity % ([2]; 60° C., 30 days, open exposure, listed as Free crystal form D): 93.9%
Color and character ([2]; 75% RH, 9 days, open exposure): White solid
Purity % ([2]; 75% RH, 9 days, open exposure, listed as Free crystal form D): 97.8%
Color and character ([2]; 75% RH, 15 days, open exposure): White solid
Purity % ([2]; 75% RH, 15 days, open exposure, listed as Free crystal form D): 97.7%
Color and character ([2]; 75% RH, 30 days, open exposure): White solid
Purity % ([2]; 75% RH, 30 days, open exposure, listed as Free crystal form D): 97.9%
Color and character [2, 4]: White solid
Purity % ([2]; 92.5% RH, 9 days, open exposure, listed as Free crystal form D): 97.8%
Color and character [2, 5]: White solid
Purity % ([2]; 92.5% RH, 15 days, open exposure, listed as Free crystal form D): 97.9%
Color and character [2, 6]: White solid
Purity % ([2]; 92.5% RH, 30 days, open exposure, listed as Free crystal form D): 97.8%
Color and character ([2]; Onset, 0 days): White solid
Purity % ([2]; Onset, 0 days, listed as Free crystal form D): 97.9%
physicochemical stability under high humidity ([2]; 30 days): good physicochemical stability
Color and character [2, 7]: White solid
Purity % ([2]; light 4500 Lux, 9 days, open exposure, listed as Free crystal form D): 97.3%
Color and character [2, 8]: White solid
Purity % ([2]; light 4500 Lux, 15 days, open exposure, listed as Free crystal form D): 96.8%
Color and character [2, 9]: White solid
Purity % ([2]; light 4500 Lux, 30 days, open exposure, listed as Free crystal form D): 95.4%
crystal form after influencing factor experiments ([2]; 30 days): remain unchanged
physical and chemical stability, long-term accelerated conditions [3]: good physical and chemical stability
Purity % 1 month ([3]; 25° C., 60% RH): 97.8%
Purity % 2 months ([3]; 25° C., 60% RH): 97.8%
Purity % 3 months ([3]; 25° C., 60% RH): 97.8%
Purity % 1 month ([3]; 40° C., 75% RH): 97.8%
Purity % 2 months ([3]; 40° C., 75% RH): 97.8%
Purity % 3 months ([3]; 40° C., 75% RH): 97.7%
Purity % 6 months ([3]; 40° C., 75% RH): 97.6%
Purity % Onset [3]: 97.9%
SMILES: N#Cc1ccc(N2CCC(Sc3ccc(COc4cccc5c4CN([C@H]4CCC(=O)NC4=O)C5=O)cn3)CC2)c(F)c1 [Crystal form D, (S)-4-(4-((5-(((2-(2,6-dioxopiperidin-3-yl)-1-oxoisoindolin-4-yl)oxy)methyl)pyridin-2-yl)thio)piperidin-1-yl)-3-fluorobenzonitrile]

Hygroscopic weight change 0.0% RH-95.0% RH [1]: 2.24%
Hygroscopic weight change 20% RH-80% RH [1]: 0.84%
Hygroscopicity class (20% RH-80% RH) [1]: (slightly hygroscopic)
Crystal form after hygroscopicity test [1]: Untransformed
Color and character ([2]; 40° C., 9 days, open exposure): White solid
Purity % ([2]; 40° C., 9 days, open exposure, listed as Free crystal form E): 97.4%
Color and character ([2]; 40° C., 15 days, open exposure): White solid
Purity % ([2]; 40° C., 15 days, open exposure, listed as Free crystal form E): 97.0%
Color and character ([2]; 40° C., 30 days, open exposure): White solid
Purity % ([2]; 40° C., 30 days, open exposure, listed as Free crystal form E): 96.4%
change in purity under 60° C. and light ([2]; 30 days): slight decrease in purity
Color and character ([2]; 60° C., 9 days, open exposure): White solid
Purity % ([2]; 60° C., 9 days, open exposure, listed as Free crystal form E): 96.7%
Color and character ([2]; 60° C., 15 days, open exposure): White solid
Purity % ([2]; 60° C., 15 days, open exposure, listed as Free crystal form E): 95.9%
Color and character ([2]; 60° C., 30 days, open exposure): White solid
Purity % ([2]; 60° C., 30 days, open exposure, listed as Free crystal form E): 94.6%
Color and character ([2]; 75% RH, 9 days, open exposure): White solid
Purity % ([2]; 75% RH, 9 days, open exposure, listed as Free crystal form E): 97.9%
Color and character ([2]; 75% RH, 15 days, open exposure): White solid
Purity % ([2]; 75% RH, 15 days, open exposure, listed as Free crystal form E): 97.9%
Color and character ([2]; 75% RH, 30 days, open exposure): White solid
Purity % ([2]; 75% RH, 30 days, open exposure, listed as Free crystal form E): 97.8%
Color and character [2, 4]: White solid
Purity % ([2]; 92.5% RH, 9 days, open exposure, listed as Free crystal form E): 97.9%
Color and character [2, 5]: White solid
Purity % ([2]; 92.5% RH, 15 days, open exposure, listed as Free crystal form E): 97.8%
Color and character [2, 6]: White solid
Purity % ([2]; 92.5% RH, 30 days, open exposure, listed as Free crystal form E): 97.8%
Color and character ([2]; Onset, 0 days): White solid
Purity % ([2]; Onset, 0 days, listed as Free crystal form E): 97.9%
physicochemical stability under high humidity ([2]; 30 days): good physicochemical stability
Color and character [2, 7]: White solid
Purity % ([2]; light 4500 Lux, 9 days, open exposure, listed as Free crystal form E): 97.7%
Color and character [2, 8]: White solid
Purity % ([2]; light 4500 Lux, 15 days, open exposure, listed as Free crystal form E): 97.4%
Color and character [2, 9]: White solid
Purity % ([2]; light 4500 Lux, 30 days, open exposure, listed as Free crystal form E): 94.9%
crystal form after influencing factor experiments ([2]; 30 days): remain unchanged
physical and chemical stability, long-term accelerated conditions [3]: good physical and chemical stability
Purity % 1 month ([3]; 25° C., 60% RH): 97.9%
Purity % 2 months ([3]; 25° C., 60% RH): 97.8%
Purity % 3 months ([3]; 25° C., 60% RH): 97.8%
Purity % 1 month ([3]; 40° C., 75% RH): 97.8%
Purity % 2 months ([3]; 40° C., 75% RH): 97.8%
Purity % 3 months ([3]; 40° C., 75% RH): 97.8%
Purity % 6 months ([3]; 40° C., 75% RH): 97.4%
Purity % Onset [3]: 97.9%
SMILES: N#Cc1ccc(N2CCC(Sc3ccc(COc4cccc5c4CN([C@H]4CCC(=O)NC4=O)C5=O)cn3)CC2)c(F)c1 [Crystal form E, (S)-4-(4-((5-(((2-(2,6-dioxopiperidin-3-yl)-1-oxoisoindolin-4-yl)oxy)methyl)pyridin-2-yl)thio)piperidin-1-yl)-3-fluorobenzonitrile]
